# Measured values published in PubChem BioAssay (NCI).
#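 Dose response: 5 concentrations. Exposure: 48 h. Format: 96-well plates. Endpoint: linear interpolation; highest concentration if not reached. GI50 marks 50% less growth. TGI marks complete inhibition of growth.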
# Columns and labels:
# Assay in all cases: NCI-60 cell line screen, 48 h
# [1] = test system: NCI-H23 lung
# [2] = test system: NCI-H460 lung
# [3] = test system: NCI-H522 lung
# [4] = test system: NCI/ADR-RES ovarian
# [5] = test system: OVCAR-3 ovarian
# [6] = test system: OVCAR-4 ovarian
# [7] = test system: OVCAR-5 ovarian
# [8] = test system: OVCAR-8 ovarian
# [9] = test system: PC-3 prostate
# [10] = test system: RPMI-8226 leukemia
# [11] = test system: RXF 393 renal
# [12] = test system: SF-268 CNS
# [13] = test system: SF-295 CNS
# [14] = test system: SF-539 CNS
# [15] = test system: SK-MEL-2 melanoma
# [16] = test system: SK-MEL-28 melanoma
# [17] = test system: SK-MEL-5 melanoma
# [18] = test system: SK-OV-3 ovarian
# [19] = test system: SN12C renal
# [20] = test system: SNB-19 CNS
# [21] = test system: SNB-75 CNS
# [22] = test system: SR leukemia
# [23] = test system: SW-620 colon
# [24] = test system: T-47D breast
# [25] = test system: TK-10 renal
# [26] = test system: U251 CNS
# [27] = test system: UACC-257 melanoma
# [28] = test system: UACC-62 melanoma
# [29] = test system: UO-31 renal
smiles,measurement,setting,value
C=CCOc1ccc2c(c1)CC[C@@H]1[C@@H]2CC[C@]2(C)C(=O)/C(=N/O)C[C@@H]12,TGI,[1],52.8 µM
same,GI50,[2],4.71 µM
same,TGI,[2],22.1 µM
same,GI50,[3],5.59 µM
same,TGI,[3],17.4 µM
same,GI50,[4],6.92 µM
same,TGI,[4],> 52 µM
same,GI50,[5],7.06 µM
same,TGI,[5],25.9 µM
same,GI50,[6],2.17 µM
same,TGI,[6],8.6 µM
same,GI50,[7],4.18 µM
same,TGI,[7],> 45.4 µM
same,GI50,[8],9.45 µM
same,TGI,[8],> 60.2 µM
same,GI50,[9],3.6 µM
same,TGI,[9],18.8 µM
same,GI50,[10],2.74 µM
same,TGI,[10],9.35 µM
same,GI50,[11],1.98 µM
same,TGI,[11],11.8 µM
same,GI50,[12],3.71 µM
same,TGI,[12],> 41.9 µM
same,GI50,[13],14.6 µM
same,TGI,[13],> 68.2 µM
same,GI50,[14],15.8 µM
same,TGI,[14],> 50.1 µM
same,GI50,[15],3.08 µM
same,TGI,[15],10.4 µM
same,GI50,[16],> 46.5 µM
same,TGI,[16],> 75.1 µM
same,GI50,[17],11.6 µM
same,TGI,[17],25.7 µM
same,GI50,[18],6.97 µM
same,TGI,[18],20.3 µM
same,GI50,[19],4.01 µM
same,TGI,[19],> 44.2 µM
same,GI50,[20],11.4 µM
same,TGI,[20],> 55.1 µM
same,GI50,[21],0.335 µM
same,TGI,[21],8.39 µM
same,GI50,[22],2.3 µM
same,TGI,[22],7.84 µM
same,GI50,[23],2.33 µM
same,TGI,[23],12.2 µM
same,GI50,[24],2.64 µM
same,TGI,[24],> 40.4 µM
same,GI50,[25],1.49 µM
same,TGI,[25],13.3 µM
same,GI50,[26],9.8 µM
same,TGI,[26],> 51 µM
same,GI50,[27],11.8 µM
same,TGI,[27],59 µM
same,GI50,[28],14.6 µM
same,TGI,[28],32.5 µM
same,GI50,[29],2.39 µM
same,TGI,[29],39.6 µM
